Measurements as given in US10125135B2, “Chemical compounds” (AstraZeneca AB, priority 2016, dated 2018).
Values after ≈ are worked out from the molar mass of the structure shown.

What was measured:
[1] = target: ERα receptor in MCF-7 human ductal carcinoma breast cell line (Homo sapiens (Human), UniProt P03372); assay: MCF-7 ER down regulation assay (immuno-fluorescence); format: cell-based; details: MCF-7 cells, 18-22 hours incubation; read-out: ER down regulation IC50 value
[2] = target: estrogen receptor (ERα) in CAMA-1 human breast cancer cell line (Homo sapiens (Human), UniProt P03372); assay: Western blotting assay, CAMA-1 cells; format: cell-based; details: 100 nM compound, 48 h; normalised to vehicle (0%) and 100 nM fulvestrant (100%)
Chain of estrogen receptor (ERα) in CAMA-1 human breast cancer cell line (P03372 whole entry): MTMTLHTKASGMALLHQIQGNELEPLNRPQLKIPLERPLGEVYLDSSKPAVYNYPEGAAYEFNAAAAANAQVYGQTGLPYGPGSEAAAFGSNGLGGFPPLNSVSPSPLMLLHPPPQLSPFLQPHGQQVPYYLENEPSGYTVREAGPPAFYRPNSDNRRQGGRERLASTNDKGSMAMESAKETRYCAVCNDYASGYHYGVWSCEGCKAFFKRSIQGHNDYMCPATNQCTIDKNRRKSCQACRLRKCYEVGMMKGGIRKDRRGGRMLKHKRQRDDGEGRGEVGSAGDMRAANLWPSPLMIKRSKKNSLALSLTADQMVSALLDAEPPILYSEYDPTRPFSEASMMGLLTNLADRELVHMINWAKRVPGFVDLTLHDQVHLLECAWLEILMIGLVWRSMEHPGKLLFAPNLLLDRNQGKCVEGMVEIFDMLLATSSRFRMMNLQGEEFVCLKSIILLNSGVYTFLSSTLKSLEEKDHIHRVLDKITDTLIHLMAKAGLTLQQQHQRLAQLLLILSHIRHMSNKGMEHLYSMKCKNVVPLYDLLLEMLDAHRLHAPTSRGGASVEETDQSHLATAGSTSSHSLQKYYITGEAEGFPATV
Method: (§1) The ability of compounds to down-regulate estrogen receptor (ER) was assessed by western blotting using human breast cancer cell lines (MCF-7 and CAMA-1). Cells were plated into 12-well tissue culture-treated plates at 0.5×10^6/well in phenol red-free RPMI containing 2 mM L-glutamine and 5% (v/v) charcoal treated foetal calf serum (F6765, Sigma). Cells were incubated with compounds (100 nM) or vehicle control (0.1% DMSO) for 48 h at 37° C., 5% CO2 before washing once with PBS and lysing with 80 μl lysis buffer (25 mM Tris/HCl, 3 mM EDTA, 3 mM EGTA, 50 mM NaF, 2 mM sodium orthovanadate, 0.27 M sucrose, 10 mM β-glycerophosphate, 5 mM sodium pyrophosphate, 0.5% TritonX-100, pH 6.8) on ice.
(§2) Cells were scraped, sonicated and centrifuged prior to performing a protein assay (DC Bio-Rad Protein kit, 500-0116) and making samples to a protein concentration of 1-2 mg/m1 in lysis buffer containing 1× LDS Sample Buffer (NP0007, Invitrogen) and 1× NuPAGE sample reducing agent (NP0009, Invitrogen). Samples were boiled for 10 min at 95° C. and then frozen at −20° C. until ready for use.
(§3) 10-20 μg protein was loaded onto 26-well Criterion gels (BioRad 345-0034). Gels were run at 125 V for 1 hr 25 min in running buffer (24 mM Tris Base Sigma, 192 mM Glycine, 3.5 mM SDS, made up in distilled water). Gels were then transferred at 30V for 2 hr in transfer buffer (25 mM Tris, 192 mM Glycine, 20% (v/v) methanol, pH 8.3, made up in distilled water) onto nitrocellulose membrane. The blot was stained with Ponceau S (P7170, Sigma) and cut according to appropriate molecular weight markers.
(§4) Membranes were blocked for 1 hour at room temp in 5% Marvel (w/v) in phosphate-buffered saline containing 0.05% Tween™ 20 (PBS/Tween). Blots were then incubated with anti-ERα (SP1) rabbit monoclonal antibody (Thermofisher) diluted 1:1000 at 4° C. overnight (with gentle shaking) followed by several washes with PBS/Tween. Secondary anti-rabbit HRP antibody (7074, CST) diluted 1:2000 dilution was incubated for 2 h at room temperature (with gentle shaking) followed by several washes with PBS/Tween. All antibodies were made up in 5% Marvel (w/v) in PBS/Tween.
(§5) The immunoblots were developed using Pierce WestDura chemiluminescent reagents (Thermo Scientific 34076) and developed/quantified on the G-box using Syngene software. Down-regulation of the ERα receptor was normalised to the vehicle control (0% down-regulation) and the 100 nM fulvestrant control (100% down-regulation) run within the same gel.

[3] = target: estrogen receptor (ERα) in MCF-7 human breast cancer cell line (Homo sapiens (Human), UniProt P03372); assay: Western blotting assay, MCF-7 cells; format: cell-based; details: 100 nM compound, 48 h; normalised to vehicle (0%) and 100 nM fulvestrant (100%)
Chain of estrogen receptor (ERα) in MCF-7 human breast cancer cell line (P03372 whole entry): as above
Method: as §1, §2, §3, §4, §5

[4] = logD shake flask, 1-octanol/aqueous buffer; format: physicochemical; details: pH 7.4
From the text: The lipophilicity of a drug is an important physical property which may influence many biological and metabolic properties of a compound. The distribution coefficient between 1-octanol and aqueous buffer, Log DO/W, at pH 7.4, is the most commonly used measurement of the lipophilicity of a compound. The current method for measurement of Log DO/W is based on the traditional shake flask technique, but with the modification of measuring compounds in mixtures of ten at a time using UPLC with quantitative mass spectrometry (MS) as a method to measure the relative octanol and aqueous concentrations. […] An additional QC sample Caffeine, with low Log D, are used and randomly placed in all runs. The method has been thoroughly validated against the previous shake flask methodologies.

[5] = Thermodynamic solubility, shake-flask; format: physicochemical; details: thermodynamic from solid; aqueous phosphate buffer pH 7.4, 24 hours at 25° C.
Method: The thermodynamic solubility of a research compound is measured under standard conditions. It is a shake-flask approach that uses 10 mM DMSO solutions which are supplied from the Compound Managements liquid store and is a high throughput method. The dried compounds are equilibrated in an aqueous phosphate buffer (pH 7.4) for 24 hours at 25° C., the portion with the dissolved compound is then separated from the remains. The solutions are analyzed and quantified using UPLC/MS/MS, QC-samples are incorporated in each assay-run to ensure the quality of the assay.

[6] = Human plasma protein binding, equilibrium dialysis (RED); format: in vitro ADME; details: dialysis for 18 hours
Method: Human Plasma Protein Binding
The automated equilibrium dialysis assay in human plasma uses the RED (Rapid Equilibrium Dialysis) Device and sample handling. The assay generally runs over two to three days including delivery of results. After dialysis for 18 hours, plasma and buffer samples are prepared for analysis by liquid chromatography and mass spectrometry. Samples are generally tested in singlicates and quantified by LC/MSMS by using a 7-point calibration curve in plasma. The compounds are pooled together in plasma pools up to 10 compounds. Three reference compounds are used in each run, Propranolol, Metoprolol and Warfarin. Warfarin is used as a control in each pool and Propranolol and Metoprolol are placed randomly in each run. An in-house Excel macro is used for preparation of files for the robot and the mass spectrometer and also used for the calculations of fraction unbound (fu %) in plasma.

ERα receptor = ERα receptor (Homo sapiens (Human), UniProt P03372); details: 500mg monthly dose; cited from earlier work
Chain of ERα receptor (P03372 whole entry): as above

Chain of ERα receptor in MCF-7 human ductal carcinoma breast cell line (P03372 whole entry): as above

Row | Compound | DC50 [1] [nM] | CAMA1 Western % ER deg vs Fv [2] [%] | MCF7 Western % ER deg vs Fv [3] [%] | logD [4] | solubility at 24 h [5] [µM] | Human plasma protein binding (% free) [6] [% free] | turnover of the receptor in patient samples (ERα receptor)
1 | COc1cc(OCCN2CC(CF)C2)ccc1[C@@H]1c2ccc3[nH]ncc3c2C[C@@H](C)N1CC(F)F [Example 7, (6S,8R)-7-(2,2-difluoroethyl)-6-(4-(2-(3-(fluoromethyl)azetidin-1-yl)ethoxy)-2-methoxyphenyl)-8-methyl-6,7,8,9-tetrahydro-3H-pyrazolo[4,3-f]isoquinoline] | 0.085 | 95 | 100 | 3.4 | 364 (≈ 178 µg/mL) | 11 | –
2 | C[C@]12CC[C@@H]3c4ccc(O)cc4C[C@@H](CCCCCCCCC[S+]([O-])CCCC(F)(F)C(F)(F)F)[C@H]3[C@@H]1CC[C@@H]2O (stereo partly shown) [Fulvestrant, fulvestrant] | – | – | – | – | – | – | less than 50%
3 | COCC(F)(F)CN1[C@H](c2ccc(OCCN3CC(CF)C3)cn2)c2ccc3[nH]ncc3c2C[C@H]1C [Example 10, (6S,8R)-7-(2,2-difluoro-3-methoxypropyl)-6-(5-(2-(3-(fluoromethyl)azetidin-1-yl)ethoxy)pyridin-2-yl)-8-methyl-6,7,8,9-tetrahydro-3H-pyrazolo[4,3-f]isoquinoline] | 0.51 | 66 | 87 | 2.4 | 811 (≈ 408 µg/mL) | 27 | –
